# Source: US9266921B2, “PGC-1α-modulating peptides” (Lipotec, S.A., priority 2011, dated 2016)
# Tests used:
# human PGC-1α promoter = assay: Modulation of the human PGC-1α promoter activity (luciferase reporter, Hep G2); format: cell-based; settings: Hep G2 transfected with luciferase under human PGC-1α promoter; peptide 0.5 mg/mL, 24 hours; normalized to carrier = 100%
# Description: The modulation capacity of the promoter of human PGC-1α is evaluated by the peptides in the invention in the hepatocellular Hep G2 carcinoma cell line transfected with the luciferase gene under the regulation of the human PGC-1α promoter. The cells are seeded at a density of 20,000 cells/25 cm^2 plate) and incubated for 24 hours in RPMI-1640 complete medium, after which the peptides of the invention are added at 0.5 mg/mL and are incubated for another 24 hours. The RPMI-1640 complete medium (carrier) is used as a negative control. The measurement of the promoter's activity is carried out using the Steady-Glo® Luciferase Assay System (PROMEGA) kit following the manufacturer's instructions. The luminescence values are read on a luminometer […] and the activity of the promoter is determined, which is normalized with regards to the values of the negative control.
# [1] = test system: subcutaneous human pre-adipocytes; assay: Accumulation of lipids in subcutaneous human pre-adipocytes (AdipoRed); format: cell-based; settings: peptide 0.1 mg/mL in PDM-2, 10 days, PGM-2 = 0%, PDM-2 = 100%
# Description: The levels of accumulation of lipids in subcutaneous human pre-adipocytes were quantified using the AdipoRed™ (Lonza) reagent. 100,000 cells were cultivated per well in PGM™-2 medium at a final volume of 100 μL. After 24 hours, the differentiation from pre-adipocytes to mature adipocytes was induced changing the medium to PDM-2 in the presence of the different peptides at 0.1 mg/mL. After 10 days of treatment with the peptides in differentiation medium, the quantity of intracellular lipids was evaluated using the AdipoRed™ reagent following the manufacturer's instructions measuring the fluorescence of the samples (length of the excitation wave 485 nm and emission 535 nm) after adding the AdipoRed™ reagent. The fluorescence values were corrected with regards to the basal fluorescence and were normalized with regards to the maximum differentiation controls (PDM-2 medium, maximum accumulation of lipids) and minimum differentiation (PGM™-2 medium, minimum accumulation of lipids).
substance,measurement,setting,value
Ac-L-His-L-Ile-L-Tyr-L-Val-L-Arg-L-Thr-NH2 (Ac-HIYVRT-NH2) [Ac-SEQ ID NO. 10-NH2],Activity of the PGC-1α promoter (%),human PGC-1α promoter,115%
Ac-L-Ser-L-Ile-L-Val-L-Val-Gly-L-Thr-NH2 (Ac-SIVVGT-NH2) [Ac-SEQ ID NO. 22-NH2],% Accumulation of intracellular lipids,[1],43%
same,Activity of the PGC-1α promoter (%),human PGC-1α promoter,63%
Ac-L-His-L-Ile-L-Tyr-L-Val-L-Ala-L-Val-NH2 (Ac-HIYVAV-NH2) [Ac-SEQ ID NO. 25-NH2],Activity of the PGC-1α promoter (%),human PGC-1α promoter,76%
Ac-L-Ser-L-Ile-L-Val-L-Val-L-Ala-L-Thr-NH2 (Ac-SIVVAT-NH2) [Ac-SEQ ID NO. 7-NH2],Activity of the PGC-1α promoter (%),human PGC-1α promoter,145%
Ac-L-His-L-Val-L-Tyr-L-Val-L-Arg-L-Val-NH2 (Ac-HVYVRV-NH2) [Ac-SEQ ID NO. 35-NH2],Activity of the PGC-1α promoter (%),human PGC-1α promoter,132%
Ac-L-His-L-Val-L-Tyr-L-Val-L-Ala-L-Val-NH2 (Ac-HVYVAV-NH2) [Ac-SEQ ID NO. 27-NH2],Activity of the PGC-1α promoter (%),human PGC-1α promoter,42%
Ac-L-Ser-L-Ile-L-Tyr-L-Val-L-Arg-L-Val-NH2 (Ac-SIYVRV-NH2) [Ac-SEQ ID NO. 34-NH2],Activity of the PGC-1α promoter (%),human PGC-1α promoter,134%
Ac-L-Ser-L-Val-L-Val-L-Val-L-Arg-L-Val-NH2 (Ac-SVVVRV-NH2) [Ac-SEQ ID NO. 40-NH2],Activity of the PGC-1α promoter (%),human PGC-1α promoter,141%
Ac-L-His-L-Ile-L-Val-L-Val-L-Ala-L-Thr-NH2 (Ac-HIVVAT-NH2) [Ac-SEQ ID NO. 6-NH2],Activity of the PGC-1α promoter (%),human PGC-1α promoter,72%
Ac-L-His-L-Ile-L-Tyr-L-Val-L-Arg-L-Val-NH2 (Ac-HIYVRV-NH2) [Ac-SEQ ID NO. 33-NH2],Activity of the PGC-1α promoter (%),human PGC-1α promoter,117%
Ac-L-Ser-L-Ile-L-Val-L-Val-L-Arg-L-Val-NH2 (Ac-SIVVRV-NH2) [Ac-SEQ ID NO. 38-NH2],Activity of the PGC-1α promoter (%),human PGC-1α promoter,180%
Ac-L-His-L-Ile-L-Val-L-Val-Gly-L-Thr-NH2 (Ac-HIVVGT-NH2) [Ac-SEQ ID NO. 21-NH2],% Accumulation of intracellular lipids,[1],114%
same,Activity of the PGC-1α promoter (%),human PGC-1α promoter,110%
Ac-L-His-L-Val-L-Tyr-L-Val-Gly-L-Val-NH2 (Ac-HVYVGV-NH2) [Ac-SEQ ID NO. 43-NH2],Activity of the PGC-1α promoter (%),human PGC-1α promoter,75%
Ac-L-Ser-L-Val-L-Tyr-L-Val-Gly-L-Val-NH2 (Ac-SVYVGV-NH2) [Ac-SEQ ID NO. 44-NH2],Activity of the PGC-1α promoter (%),human PGC-1α promoter,67%
Ac-L-Ser-L-Ile-L-Val-L-Val-L-Ala-L-Val-NH2 (Ac-SIVVAV-NH2) [Ac-SEQ ID NO. 30-NH2],Activity of the PGC-1α promoter (%),human PGC-1α promoter,120%
Ac-L-His-L-Val-L-Tyr-L-Val-L-Ala-L-Thr-NH2 (Ac-HVYVAT-NH2) [Ac-SEQ ID NO. 4-NH2],Activity of the PGC-1α promoter (%),human PGC-1α promoter,77%
Ac-L-Ser-L-Ile-L-Val-L-Val-L-Arg-L-Thr-NH2 (Ac-SIVVRT-NH2) [Ac-SEQ ID NO. 15-NH2],Activity of the PGC-1α promoter (%),human PGC-1α promoter,150%
Ac-L-Ser-L-Ile-L-Tyr-L-Val-L-Arg-L-Thr-NH2 (Ac-SIYVRT-NH2) [Ac-SEQ ID NO. 11-NH2],% Accumulation of intracellular lipids,[1],76%
same,Activity of the PGC-1α promoter (%),human PGC-1α promoter,151%
